Columns and labels:
Assay type in all cases: cell-based, human
253G1 cells [1] = assay: Study on reagent to be added: fluorescent immunostaining of induced myotube and skeletal muscle cells; conditions: for use of one reagent instead of the reference reagent (CHIR or SB) for induction: 0.5 μM BIO or 10 μM 5B216763 instead of CHIR; for use of one reagent instead of the reference reagent (CHIR or SB) for induction / use of one reagent instead of the reference reagent (SB or FSK) for induction: 1 μM A83-01 instead of SB; for use of combined replacement reagents for induction: several reference reagents (CHIR, SB, DM, FSK) replaced at once; for use of two reagents instead of SB and DM for induction / use of one reagent instead of the reference reagent (SB or FSK) for induction: fibronectin-coated vessel (section 5-2); for use of two reagents instead of SB and DM for induction: 1 μM A83-01 and 0.1 μM LDN193189; for use of one reagent instead of the reference reagent (SB or FSK) for induction: 50 μM dbcAMP instead of FSK
Protocol: (§1) According to Reference Example 1, 253G1 cells were plated over a Matrigel-coated culture vessel. Two days thereafter, the E8 medium was replaced with B-27 medium supplemented with 5 μM CHIR and 1% AA to start differentiation (the starting day of differentiation was defined as day 0 of differentiation).
On day 2 of differentiation, the medium was replaced with B-27 medium supplemented with 1% AA, 10 μM SB and 0.5 μM DM. On day 4 of differentiation, the medium was further replaced with B-27 medium supplemented with 1% AA and 10 μM FSK. The culture was continued until day 7 of differentiation.
On day 7 of differentiation, the medium was replaced with DMEM (high glucose) medium supplemented with 10 μM FSK, 5% StemSure Serum Replacement, 1% AA and 1% ITS-G. The culture was continued with the medium replaced every 2 to 3 days.
The cells (skeletal muscle precursor cells) on week 3 of differentiation were cryopreserved in the same way as the method described in Example 3. The cryopreserved cells were thawed, plated, and cultured for 2 days in the same way as the method described in Example 3. Then, the medium was replaced with DMEM (high glucose) medium supplemented with 10 μg/mL FGF2, 10 μM FSK, 1% AA, 5% StemSure Serum Replacement and 1% ITS-G. The culture was continued for 2 weeks with the medium replaced every 2 to 3 days.
The cells thus cultured for 2 weeks were fluorescently immunostained using an antibody recognizing myosin heavy chains (R&D Systems, Inc., clone No.: MF20), an antibody recognizing desmin (Abcam plc.) and Hoechst 33342 for nuclear staining (Dojindo Laboratories). As a result, multinuclear myotube cells costained with both the antibodies were confirmed (FIG. 5, left diagram).
On week 2 of culture, the medium was replaced with growth factor- and FSK-free DMEM (low glucose) medium supplemented with 1% AA, 5% StemSure Serum Replacement and 1% ITS-G, and the culture was continued with the medium replaced. On week 4 of culture, the cells were fluorescently immunostained using an antibody recognizing α-actinin (Sigma-Aldrich Co. LLC), an antibody recognizing dystrophin (Abcam plc.) and Hoechst 33342. As a result, multinuclear skeletal muscle cells were stained (FIG. 5, right diagram).
Various changes in conditions were studied with reference to the experiment described above. The frozen cells on weeks 2 and 4 of culture were similarly fluorescently immunostained and evaluated.
Cells were obtained in the same way as the method described in the preceding section “5-1” except that a culture vessel coated with fibronectin (Sigma-Aldrich Co. LLC) instead of Matrigel was used. After thawing, myotube cells (FIG. 6, left diagram) and skeletal muscle cells (FIG. 6, right diagram) were confirmed on weeks 2 and 4, respectively, of culture.

253G1 cells [2] = assay: Somitic mesoderm marker gene expression on day 7 of differentiation; conditions: 2 to 4 μM CHIR days 0 to 2, then SB (and DM) days 2 to 4, then FSK days 4 to 7
Protocol: as §1, with “with 1 to 6” for “with 5”
(§2) On day 2 of differentiation, change in the expression of pan-mesodermal marker genes BRACHYURY and TBX6 was examined. The change in gene expression was analyzed by the following procedures: total RNA was prepared using RNeasy 96 Kit or RNeasy Mini Kit (Qiagen N.V.), and cDNA was then synthesized from the total RNA using reverse transcriptase (PrimeScript RT reagent kit, Takara Bio Inc.). The obtained cDNA was subjected to real-time PCR using a Taqman probe (Applied Biosystems, Inc.). A sample prepared from the 253G1 cells before the start of differentiation was used as a reference sample. The gene expression levels of BRACHYURY and TBX6 were calculated by the comparative Ct method.
On day 2 of differentiation, the medium was replaced with B-27 medium supplemented with 1% AA and 10 μM SB (and 0.3 to 1 μM DM). On day 4 of differentiation, the medium was further replaced with B-27 medium supplemented with 1% AA and 10 μM FSK. […]
On day 7 of differentiation, the expression levels of somitic mesoderm marker genes PAX3 and PAX7 were measured. […]

253G1 cells [3] = assay: Pan-mesodermal marker gene expression (real-time PCR) on day 2 of differentiation; conditions: CHIR 1 to 6 μM, ratio to undifferentiated iPS cells
Protocol: as §1, with “with 1 to 6” for “with 5”
as §2

Row | Compound | use of one reagent instead of the reference reagent (CHIR or SB) for induction (253G1 cells [1]; Matrigel (section 5-1)) | use of combined replacement reagents for induction (253G1 cells [1]; Matrigel (section 5-1)) | use of two reagents instead of SB and DM for induction (253G1 cells [1]) | use of one reagent instead of the reference reagent (SB or FSK) for induction (253G1 cells [1]) | expression of somitic mesoderm marker genes PAX3 and PAX7 (253G1 cells [2]) | BRACHYURY and TBX6 expression (253G1 cells [3]) | induction of differentiation into skeletal muscle precursor cells (253G1 cells [1]; Matrigel (section 5-1), 50 μM dbcAMP instead of FSK from day 4 of differentiation)
1 | 6-bromoindirubin-3-oxime [BIO] | it was possible | it was possible |  |  |  |  | 
2 | Cn1cc(C2=C(c3ccc(Cl)cc3Cl)C(=O)NC2=O)c2ccccc21 [5B216763, 3-(2,4-dichlorophenyl)-4-(1-methyl-1H-indol-3-yl)-1H-pyrrole-2,5-dione] | it was possible | it was possible |  |  |  |  | 
3 | Cl.c1ccc2c(-c3cnn4cc(-c5ccc(N6CCNCC6)cc5)cnc34)ccnc2c1 [LDN193189, 4-[6-(4-piperazin-1-yl-phenyl)-pyrazolo[1,5-α]pyrimidin-3-yl]-quinoline hydrochloride] |  | it was possible | it was possible |  |  |  | 
4 | Cc1cccc(-c2nn(C(=S)Nc3ccccc3)cc2-c2ccnc3ccccc23)n1 [A83-01, 3-(6-methyl-2-pyridinyl)-N-phenyl-4-(4-quinolinyl)-1H-pyrazole-1-carbothioamide] | it was possible | it was possible | it was possible | it was possible |  |  | 
5 | Cc1c[nH]c(-c2cnc(NCCNc3ccc(C#N)cn3)nc2-c2ccc(Cl)cc2Cl)n1 [CHIR, 6-[[2-[[4-(2,4-dichlorophenyl)-5-(4-methyl-1H-imidazol-2-yl)-2-pyrimidinyl]amino]ethyl]amino]nicotinonitrile] |  |  |  |  | high expression | increase in a CHIR concentration-dependent manner | 
6 | CCCC(=O)Nc1ncnc2c1ncn2[C@@H]1O[C@@H]2COP(=O)(O)O[C@H]2[C@H]1OC(=O)CCC [dbcAMP, dibutyryl cAMP] |  | it was possible |  | it was possible |  |  | it was possible to induce differentiation into skeletal muscle precursor cells
